The values below come from ChEMBL document CHEMBL1201862, “PubChem BioAssay data set” (2004).

Structures are written as SMILES. Counter-ions that a name gives are not always drawn.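 In this assay, cells in 96-well plates receive the compound at five concentrations for 48 hours. Endpoints are linearly interpolated between the surrounding concentrations. Abbreviation: GI50, concentration required for 50% inhibition of growth.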 Active and inactive are the calls of the source. No stated cut-off is given here; in the data, active = GI50 up to about 1.1 µM and inactive = higher. Residues, ends and D or L forms follow the SMILES beside them. *: point of attachment. Boc = CC(C)(C)OC(=O)*

Test systems include A549; BT-549; DU-145; IGROV-1; K562; KM12; LOX IMVI; MDA-N; MOLT-4; NCI-H460; NCI/ADR-RES; OVCAR-3; OVCAR-5; PC-3; SK-MEL-28; SNB-19; U-251; HL-60; SNB-75; SR.
What all share (test): growth of human tumour cells (NCI), 48 h

On to `NC(Cc1ccccc1)(C(=O)O)C(=O)O`, for which the GI50 in the test on A549, with BT-549, with DU-145, in the test on IGROV-1, in the test with K562 and with KM12 was > 100 µM (inactive) each time. For the same compound, the GI50 with LOX IMVI, in the test with MDA-N, in the test on MOLT-4, with NCI-H460, in the test with NCI/ADR-RES and in the test on OVCAR-3 was > 100 µM (inactive) in each case. The GI50 with OVCAR-5, in the test on PC-3, in the test on SK-MEL-28, in the test with SNB-19 and in the test with U-251 was > 100 µM (inactive) each time.
Take `COC(=O)C(Cc1c[nH]c2ccccc12)NC(=O)C(Cc1c[nH]c2ccccc12)NC(=O)C(Cc1c[nH]c2ccccc12)NC(=O)C(Cc1c[nH]c2ccccc12)NC(=O)C(Cc1c[nH]c2ccccc12)NC(=O)C(Cc1c[nH]c2ccccc12)NC(=O)OC(C)(C)C` (centres undefined) (Boc-WWWWWW-OMe; configuration not given here): the GI50 with A549 was 31.7 µM (inactive); in the test with BT-549, 44 µM (inactive); with DU-145 it was 32.9 µM (inactive); in the test with HL-60, > 100 µM (inactive); with IGROV-1 it was 36.9 µM (inactive); with K562 it was > 100 µM (inactive). Besides, the GI50 was 38.1 µM (inactive) in the test with LOX IMVI; 41.6 µM (inactive) with MDA-N; 63.4 µM (inactive) with MOLT-4; > 100 µM (inactive) with NCI-H460; > 100 µM (inactive) with OVCAR-3; > 100 µM (inactive) in the test on OVCAR-5. In addition, the GI50 with PC-3 was 52.5 µM (inactive); in the test with SK-MEL-28, 14.4 µM (inactive); in the test with SNB-19 it was 47.3 µM (inactive); in the test on SNB-75, 46 µM (inactive); in the test with SR it was 82.4 µM (inactive); with U-251, 54.7 µM (inactive).
Consider `COC(=O)c1c2c(cc3c1CC1(Cc4cc5c(cc4C1)CCC5)C3)CCC2`, for which the GI50 with A549, with DU-145, in the test on HL-60, with IGROV-1, in the test on K562 and in the test with LOX IMVI was > 100 µM (inactive) each time. Further, the GI50 in the test with MDA-N, in the test on MOLT-4, in the test with NCI-H460, with NCI/ADR-RES, in the test on OVCAR-3 and with OVCAR-5 was > 100 µM (inactive) each time. Moreover, the GI50 in the test on PC-3, in the test with SK-MEL-28, in the test on SNB-19, with SNB-75, in the test with SR and with U-251 was > 100 µM (inactive) in each case.
With `CN[C@@H](C)[C@@H](O)c1ccccc1` [PSEUDOEPHEDRINE HYDROCHLORIDE], the GI50 with A549, in the test with DU-145, in the test on HL-60, with IGROV-1, in the test with K562 and with KM12 was > 100 µM (inactive) in each case. In addition, the GI50 is > 100 µM (inactive) with LOX IMVI; > 100 µM (inactive) with MDA-N; > 100 µM (inactive) with MOLT-4; > 100 µM (inactive) in the test with NCI-H460; > 100 µM (inactive) with NCI/ADR-RES; > 10 µM (inactive) in the test with OVCAR-3. The GI50 in the test on OVCAR-5, in the test on PC-3, in the test on SK-MEL-28, in the test on SNB-19, in the test on SNB-75 and in the test with U-251 was > 100 µM (inactive) each time.
On to `O=C(O)C1C2C=CC(C2)C1c1ccccc1` (centres undefined), for which the GI50 in the test on A549, in the test on DU-145, with HL-60, in the test on K562, in the test on KM12 and in the test on LOX IMVI was > 100 µM (inactive) in each case. The GI50 in the test on MDA-N, with MOLT-4, in the test with NCI-H460, in the test with NCI/ADR-RES, with OVCAR-3 and in the test on OVCAR-5 was > 100 µM (inactive) each time. In addition, the GI50 with PC-3, in the test on SK-MEL-28, in the test on SNB-19, in the test with SNB-75, in the test with SR and in the test on U-251 was > 100 µM (inactive) in each case.
With `Cn1ccnc1Oc1ccc(Cl)cc1`, the GI50 in the test with A549 is 34.2 µM (inactive); in the test with BT-549, 16.9 µM (inactive); with DU-145 it was 15.9 µM (inactive); in the test on HL-60, 0.631 µM (active); with K562 it was 13.7 µM (inactive); in the test on LOX IMVI, 13.2 µM (inactive). Further, the GI50 in the test on MOLT-4 is 2.38 µM (inactive); in the test on NCI-H460 it was 30.3 µM (inactive); in the test with NCI/ADR-RES it was 16.7 µM (inactive); with OVCAR-5, 15.6 µM (inactive); with PC-3 it was 14.3 µM (inactive); with SK-MEL-28, 14.4 µM (inactive). Moreover, the GI50 with SNB-19 is 33 µM (inactive); in the test on SNB-75, 14.7 µM (inactive); in the test with U-251, 17.9 µM (inactive).
For the compound `COc1ccc([S+]([O-])Cc2cc(OC)c(OC)c(OC)c2)cc1` (centres undefined), the GI50 in the test with A549 is 49.1 µM (inactive); in the test with BT-549, 46.7 µM (inactive); in the test with DU-145, > 100 µM (inactive); in the test on HL-60, > 10 µM (inactive); in the test on IGROV-1, > 100 µM (inactive); in the test on K562, 14.7 µM (inactive). Also, the GI50 in the test on KM12 was 40.8 µM (inactive); with LOX IMVI, 91.6 µM (inactive); in the test with MOLT-4 it was 27 µM (inactive); in the test with NCI-H460, 33.2 µM (inactive); with NCI/ADR-RES, 40.7 µM (inactive); with OVCAR-3, 57.8 µM (inactive). In addition, the GI50 in the test with OVCAR-5 was 42.9 µM (inactive); in the test on PC-3, > 100 µM (inactive); in the test with SK-MEL-28 it was 95.3 µM (inactive); in the test with SNB-19, 69.7 µM (inactive); in the test on SNB-75 it was 45.4 µM (inactive); in the test on SR it was 37.8 µM (inactive). In the test with U-251, the GI50 was 60.3 µM (inactive).
Turning to `O=C1NC(=S)N/C1=C\c1ccc(Br)s1`, the GI50 in the test with BT-549 is 40.4 µM (inactive); with DU-145, > 100 µM (inactive); with HL-60 it was 0.861 µM (active); with IGROV-1 it was 93.5 µM (inactive); with K562, 34.8 µM (inactive); in the test on KM12, > 100 µM (inactive). For the same compound, the GI50 is > 100 µM (inactive) in the test on LOX IMVI; > 100 µM (inactive) in the test on MDA-N; 21.4 µM (inactive) with MOLT-4; 70.5 µM (inactive) in the test with NCI-H460; 71.8 µM (inactive) in the test on OVCAR-3; > 100 µM (inactive) in the test with OVCAR-5. Further, the GI50 in the test on PC-3 was 94.2 µM (inactive); with SK-MEL-28, > 100 µM (inactive); in the test with SNB-19, 90.2 µM (inactive); in the test on SR, 33.4 µM (inactive); in the test on U-251, > 100 µM (inactive).
Take `CCN1CCCC(Nc2cc(C)nc(NC(=N)Nc3ccc(Cl)c(Cl)c3)n2)C1` (centres undefined): the GI50 in the test with A549 is 1.91 µM (inactive); in the test on BT-549 it was 1.64 µM (inactive); with DU-145, 4.43 µM (inactive); in the test on HL-60, 0.216 µM (active); with IGROV-1 it was 1.38 µM (inactive); in the test with K562, 0.217 µM (active). Also, the GI50 is 1.85 µM (inactive) in the test with KM12; 1.67 µM (inactive) in the test on MDA-N; 0.658 µM (active) in the test with MOLT-4; 1.26 µM (inactive) in the test on NCI-H460; 2.78 µM (inactive) in the test on NCI/ADR-RES; 1.67 µM (inactive) in the test with OVCAR-3. For the same compound, the GI50 is 2.74 µM (inactive) with OVCAR-5; 1.77 µM (inactive) with SK-MEL-28; 2.14 µM (inactive) in the test on SNB-19; 1.25 µM (inactive) with SNB-75; 1.2 µM (inactive) with SR; 1.3 µM (inactive) in the test on U-251.
For `CC1(C)[C@H]2CC[C@]1(C)[C@H](OC(=O)NNC(=O)O[C@@H]1C[C@@H]3CC[C@@]1(C)C3(C)C)C2`, the GI50 in the test on A549 is 10.4 µM (inactive); in the test with BT-549, 19.7 µM (inactive); in the test on DU-145, 16.3 µM (inactive); in the test on HL-60, 7.01 µM (inactive); in the test with IGROV-1, 15.4 µM (inactive); in the test with K562, 3.35 µM (inactive). For the same compound, the GI50 with KM12 was 15.7 µM (inactive); in the test on LOX IMVI, 26.7 µM (inactive); in the test on MDA-N, 11.6 µM (inactive); in the test on MOLT-4 it was 7.29 µM (inactive); in the test on NCI-H460, 13.7 µM (inactive); in the test with OVCAR-3, 11.9 µM (inactive). Also, the GI50 is 17.5 µM (inactive) with OVCAR-5; 24.3 µM (inactive) in the test on SK-MEL-28; 19.5 µM (inactive) in the test with SNB-19; 13.6 µM (inactive) with SNB-75; 16 µM (inactive) in the test on U-251.
Turning to `COc1cc2c(c(OC)c1OC)-c1ccc(OC)c(=O)cc1C(NC(=O)CCCCCNc1ccc(N=[N+]=[N-])cc1[N+](=O)[O-])CC2` (centres undefined), the GI50 in the test with A549, in the test on DU-145, with HL-60, with IGROV-1, in the test with K562 and in the test with KM12 was < 0.01 µM (active) in each case. The GI50 with LOX IMVI was < 0.01 µM (active); in the test with MDA-N, < 0.01 µM (active); with MOLT-4, < 0.01 µM (active); in the test with NCI-H460, < 0.01 µM (active); in the test with NCI/ADR-RES it was 0.422 µM (active); with OVCAR-3, < 0.01 µM (active). The GI50 with OVCAR-5 is < 0.01 µM (active); with PC-3, < 0.01 µM (active); with SK-MEL-28 it was < 0.01 µM (active); in the test on SNB-19, < 0.01 µM (active); with SNB-75 it was 0.246 µM (active); with SR it was < 0.01 µM (active). Besides, the GI50 in the test on U-251 is < 0.01 µM (active).
